The structures appear in SMILES notation.

The results in this text go back to paper PMC10739865, “The Mycobacterium tuberculosis methyltransferase Rv2067c manipulates host epigenetic programming to promote its own survival” (Nature Communications, 2023).

Assay [1] deals with T1, Rv2067c (Mycobacterium tuberculosis, UniProt P9WLL9).
Assay [2] addresses T1, Rv2067c. This is another data set of the same source.

T1 sequence (P9WLL9 whole entry): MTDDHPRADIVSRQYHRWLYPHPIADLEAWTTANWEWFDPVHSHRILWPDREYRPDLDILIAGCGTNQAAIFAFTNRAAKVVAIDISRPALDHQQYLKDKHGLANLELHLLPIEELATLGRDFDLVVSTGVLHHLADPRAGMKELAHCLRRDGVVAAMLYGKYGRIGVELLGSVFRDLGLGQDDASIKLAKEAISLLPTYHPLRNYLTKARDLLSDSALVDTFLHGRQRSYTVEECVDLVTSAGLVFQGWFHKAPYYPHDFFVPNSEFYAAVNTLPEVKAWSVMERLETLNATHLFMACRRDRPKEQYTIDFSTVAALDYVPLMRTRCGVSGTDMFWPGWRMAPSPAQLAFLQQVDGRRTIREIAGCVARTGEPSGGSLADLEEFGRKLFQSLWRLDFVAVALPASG

For `C[S+](CC[C@H](N)C(=O)O)C[C@H]1O[C@@H](n2cnc3c(N)ncnc32)[C@H](O)[C@@H]1O` (stereo partly drawn) [S-Adenosyl-L-methionine], the “radiometric methyltransferase assay (scintillation counting, autoradiography)” value on Rv2067c [1] is “Rv2067c as MTase, and tritiated SAM as a methyl donor, methylation of histones was detected”.

Regarding `Nc1ncnc2c1ncn2[C@@H]1O[C@H](CSCC[C@H](N)C(=O)O)[C@@H](O)[C@H]1O` [S-adenosyl-L-homocysteine], at Rv2067c [2], the “X-ray crystallography, 2.40 Å” value is “The coordinates for Rv2067c-SAH structure have been deposited in the Protein Data Bank”.
